Laboratory results published in patent US20120258960A1, “NOVEL MULTIFUNCTIONAL PEPTIDASE INHIBITORS, ESPECIALLY FOR MEDICAL USE” (IMTM GMBH, priority 2009, published 2012).
pIC50: −log10 of the molar value.

What was measured:
[1] = target: purified, recombinant human DPIV (Homo sapiens, UniProt P27487); assay: Measurement of DPIV activity (fluorogenic substrate (Ala-Pro)2-R110)
Experimental: The enzymatic activity of DPIV was assessed by the hydrolysis of the fluorogenic substrate bis-(L-alanyl-prolyl)-Rhodamin-110 (bis-trifluoracetate, abbreviation (Ala-Pro)2-R110). The final substrate concentration was 0.5 μM.
The assay was performed in white microtitre plates for fluorescence measurements. The test items, substrate and enzyme were diluted in assay buffer. […] As controls, the DPIV activity in the absence of test items as well as the spontaneous hydrolysis of the substrate was determined.

[2] = target: human recombinant Aminopeptidase N (Homo sapiens, UniProt P15144); assay: Measurement of APN activity (fluorogenic substrate (Ala)2-R110); format: biochemical; conditions: human recombinant APN approx. 5 nM, substrate 0.5 μM, pH 7.5
Chain of human recombinant Aminopeptidase N (P15144 whole entry): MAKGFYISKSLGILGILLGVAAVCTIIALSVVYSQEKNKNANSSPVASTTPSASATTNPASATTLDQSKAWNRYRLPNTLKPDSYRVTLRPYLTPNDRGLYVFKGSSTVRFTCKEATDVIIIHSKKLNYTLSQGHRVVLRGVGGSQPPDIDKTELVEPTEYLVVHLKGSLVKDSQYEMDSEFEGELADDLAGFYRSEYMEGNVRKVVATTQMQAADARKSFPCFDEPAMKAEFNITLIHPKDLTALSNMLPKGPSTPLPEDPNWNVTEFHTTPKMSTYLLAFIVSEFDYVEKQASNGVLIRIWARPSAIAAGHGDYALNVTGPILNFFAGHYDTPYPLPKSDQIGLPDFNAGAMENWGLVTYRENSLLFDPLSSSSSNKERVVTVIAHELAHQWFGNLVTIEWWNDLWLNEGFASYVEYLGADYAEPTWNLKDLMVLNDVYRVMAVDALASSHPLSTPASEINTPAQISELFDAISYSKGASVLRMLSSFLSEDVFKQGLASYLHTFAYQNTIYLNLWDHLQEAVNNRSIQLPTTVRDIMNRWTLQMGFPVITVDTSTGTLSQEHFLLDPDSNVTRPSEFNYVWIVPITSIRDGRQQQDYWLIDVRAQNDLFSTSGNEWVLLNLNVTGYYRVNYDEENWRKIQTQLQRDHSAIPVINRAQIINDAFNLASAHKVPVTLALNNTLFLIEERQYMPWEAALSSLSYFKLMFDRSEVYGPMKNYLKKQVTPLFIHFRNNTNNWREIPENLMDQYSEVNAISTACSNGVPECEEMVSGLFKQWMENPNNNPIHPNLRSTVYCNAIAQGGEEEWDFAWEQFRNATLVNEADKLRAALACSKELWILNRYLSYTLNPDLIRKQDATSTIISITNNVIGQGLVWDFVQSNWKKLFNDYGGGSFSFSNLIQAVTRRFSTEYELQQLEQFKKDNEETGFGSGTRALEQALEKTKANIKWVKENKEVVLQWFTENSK
Experimental: Inhibitory effects of test items on the enzymatic activity of human recombinant Aminopeptidase N (final concentration approx. 5 nM) were assessed by using the fluorogenic substrate bis-(L-alanyl)-Rhodamine-110 (bis-trifluoracetate, abbreviation (Ala)2-R110) at a final concentration of 0.5 μM. The assay was performed in 0.05 M TRIS/HCl buffer pH 7.5, supplemented with 0.05% Triton (v/v), 0.05% BSA (w/v), 2 mM MgCl2.
The assay was performed in white microtitre plates for fluorescence measurements.
As controls, (Ala)2-R110 hydrolyzing activity in the absence of any test item as well as the spontaneous substrate hydrolysis was determined.
The release of the fluorescent hydrolysis product Rhodamine 110 was measured at an excitation wavelength of 485 nm and an emission wavelength of 530 nm by using a microtitre fluorescence reader immediately after substrate addition as well as after 30, 60 and 120 min.

Chain of purified, recombinant human DPIV (P27487 whole entry): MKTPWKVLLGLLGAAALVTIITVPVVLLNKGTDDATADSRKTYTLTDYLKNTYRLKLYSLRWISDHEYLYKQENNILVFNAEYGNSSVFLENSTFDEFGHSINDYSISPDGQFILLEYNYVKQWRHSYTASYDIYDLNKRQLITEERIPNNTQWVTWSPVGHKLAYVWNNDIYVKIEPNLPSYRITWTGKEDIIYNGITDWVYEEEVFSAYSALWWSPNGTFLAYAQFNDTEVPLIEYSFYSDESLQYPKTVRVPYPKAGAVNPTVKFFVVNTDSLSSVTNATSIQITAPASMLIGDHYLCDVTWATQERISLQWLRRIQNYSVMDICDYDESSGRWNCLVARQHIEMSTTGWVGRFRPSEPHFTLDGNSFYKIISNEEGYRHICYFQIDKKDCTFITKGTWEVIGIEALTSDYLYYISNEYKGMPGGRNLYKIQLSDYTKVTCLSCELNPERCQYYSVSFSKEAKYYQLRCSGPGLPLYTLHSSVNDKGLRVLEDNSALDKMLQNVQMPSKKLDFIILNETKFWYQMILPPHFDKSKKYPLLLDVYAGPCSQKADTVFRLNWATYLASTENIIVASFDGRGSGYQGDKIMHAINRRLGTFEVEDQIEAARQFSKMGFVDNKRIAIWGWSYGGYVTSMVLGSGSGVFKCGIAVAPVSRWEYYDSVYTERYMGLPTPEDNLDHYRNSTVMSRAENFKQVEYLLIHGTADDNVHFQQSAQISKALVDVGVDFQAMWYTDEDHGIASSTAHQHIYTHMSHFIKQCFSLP

Row | pIC50 [1] | IC50 [2] [µM] | SMILES
1 | 6.11 | 0.0008 | NC(CNC(=O)c1cccc(NC(=O)C(O)C(N)Cc2ccc(-c3cccnc3)cc2)c1)Cc1cc(F)ccc1F (stereo not drawn) [drawing 79]
2 | – | 0.02 | NC(CC(=O)Nc1ccc(NC(=O)C(O)C(N)Cc2ccccc2)cc1)Cc1cc(F)ccc1F (stereo not drawn) [drawing 39]
3 | 7.10 | – | CCCC(=O)OC(C(=O)NCC(C)(C)CNC(=O)CC(N)Cc1cc(F)ccc1F)C(N)Cc1ccccc1 (stereo not drawn) [drawing 54]
4 | 4.55 | 1.5 | NC(CC(=O)NCCNC(=O)C(O)C(N)Cc1ccccc1)Cc1ccc2ccccc2c1 (stereo not drawn) [drawing 13]
5 | 5.78 | 0.191 | NC(CC(=O)NCC1(CNC(=O)C(O)C(N)Cc2ccccc2)CCC1)Cc1ccccc1 (stereo not drawn) [drawing 29]
6 | 6.70 | 15.4 | CN(CCCNC(=O)CC(N)Cc1cc(F)ccc1F)C(=O)C(O)C(N)Cc1ccccc1 (stereo not drawn) [drawing 40]
7 | 6.92 | > 50 | CCCCCCCC(=O)OC(C(=O)NCCCCNC(=O)CC(N)Cc1cc(F)ccc1F)C(N)Cc1ccccc1 (stereo not drawn) [drawing 50]
8 | 7.00 | 0.3 | CCC(CC)(CNC(=O)CC(N)Cc1cc(F)ccc1F)CNC(=O)C(O)C(N)Cc1ccccc1 (stereo not drawn) [drawing 59]
9 | 5.67 | 2 | CC(C)(CNC(=O)CC(N)C(=O)N1CCSC1)CNC(=O)C(O)C(N)Cc1ccccc1 (stereo not drawn) [drawing 30]
10 | 6.75 | 8.5 | CN(CCCN(C)C(=O)C(O)C(N)Cc1ccccc1)C(=O)CC(N)Cc1cc(F)ccc1F (stereo not drawn) [drawing 32]
11 | < 4.30 | > 50 | CCCCCCCC(=O)NC(CC(=O)NCC(C)(C)CNC(=O)C(O)C(Cc1ccccc1)NC(=O)CCCCCCC)Cc1cc(F)ccc1F (stereo not drawn) [drawing 33]
12 | 7.10 | 0.14 | NC(CC(=O)NCCCCNC(=O)C(O)C(N)Cc1ccccc1)Cc1cc(F)ccc1F (stereo not drawn) [drawing 25]
13 | 6.33 | > 50 | NC(CC(=O)NCCCCNC(=O)C(O)C(N)Cc1ccc(C(=O)O)cc1)Cc1cc(F)ccc1F (stereo not drawn) [drawing 45]
14 | 6.70 | 6.2 | NC(CC(=O)NC(CCCNC(=O)C(O)C(N)Cc1ccccc1)C(=O)O)Cc1cc(F)ccc1F (stereo not drawn) [drawing 35]
15 | 7.00 | 0.06 | CC(C)(CNC(=O)CC(N)Cc1cc(F)ccc1F)CNC(=O)C(O)C(N)Cc1ccccc1 (stereo not drawn) [drawing 26]
16 | < 4.30 | > 50 | CCCCCCCCCCCCCCCCNC(CC(=O)NCC(C)(C)CNC(=O)C(O)C(Cc1ccccc1)NCCCCCCCCCCCCCCCC)Cc1cc(F)ccc1F (stereo not drawn) [drawing 66]

Row | pIC50 [1] | IC50 [2] [µM] | SMILES
17 | 6.05 | > 50 | NC(CC(=O)N1CCN(C(=O)CC(O)C(N)Cc2ccccc2)CC1)Cc1ccccc1 (stereo not drawn) [drawing 16]
18 | 6.52 | 0.2 | CCCCCCCC(=O)OC(C(=O)NCC(C)(C)CNC(=O)CC(N)Cc1cc(F)ccc1F)C(N)Cc1ccccc1 (stereo not drawn) [drawing 41]
19 | 6.35 | 0.87 | CC(C(=O)NCC(C)(C)CNC(=O)C(O)C(N)Cc1ccccc1)C(N)Cc1cc(F)ccc1F (stereo not drawn) [drawing 60]
20 | 4.85 | > 50 | CCCCCCCCOC(C(=O)NCC(C)(C)CNC(=O)CC(N)Cc1cc(F)ccc1F)C(N)Cc1ccccc1 (stereo not drawn)
21 | < 4.30 | > 50 | CCCCCCCCCCCCCCCC(=O)NC(CC(=O)NCC(C)(C)CNC(=O)C(O)C(Cc1ccccc1)NC(=O)CCCCCCCCCCCCCCC)Cc1cc(F)ccc1F (stereo not drawn) [drawing 62]
22 | 7.15 | 10 | NC(CC(=O)N1CCCN(C(=O)C(O)C(N)Cc2ccccc2)CC1)Cc1cc(F)ccc1F (stereo not drawn) [drawing 65]
23 | 6.00 | 21 | CCCCCCCCCCCCCC(=O)OC(C(=O)NCC(C)(C)CNC(=O)CC(N)Cc1cc(F)ccc1F)C(N)Cc1ccccc1 (stereo not drawn) [drawing 46]
24 | 6.10 | 27 | NC(CC(=O)N1CCN(C(=O)C(O)C(N)Cc2ccccc2)CC1)Cc1ccccc1 (stereo not drawn) [drawing 17]
25 | 5.59 | 2.8 | CCC(CC)(CNC(=O)CC(N)Cc1ccccc1)CNC(=O)C(O)C(N)Cc1ccccc1 (stereo not drawn) [drawing 22]
26 | 6.70 | > 50 | CCCCCCCCCC(=O)OC(C(=O)NCC(C)(C)CNC(=O)CC(N)Cc1cc(F)ccc1F)C(N)Cc1ccccc1 (stereo not drawn) [drawing 48]
27 | 6.55 | 22 | C[C@@H]1CN(C(=O)CC(O)C(N)Cc2ccccc2)C[C@H](C)N1C(=O)CC(N)Cc1ccccc1 (stereo partly drawn) [drawing 19]
28 | 5.92 | 0.41 | NC(CC(=O)NCCCCCCNC(=O)C(O)C(N)Cc1ccccc1)Cc1ccccc1 (stereo not drawn) [drawing 28]
29 | 6.80 | 0.08 | NC(CC(=O)NCC1(CNC(=O)C(O)C(N)Cc2ccccc2)CCCC1)Cc1cc(F)ccc1F (stereo not drawn) [drawing 68]
30 | 7.00 | 0.01 | CC(C)(CNC(=O)CC(N)Cc1cc(F)ccc1F)CNC(=O)C(O)C(N)Cc1ccc(-c2cncnc2)cc1 (stereo not drawn) [drawing 77]
31 | 4.60 | > 50 | CCCCCCCCCCCCCCCCOC(C(=O)NCC(C)(C)CNC(=O)CC(N)Cc1cc(F)ccc1F)C(N)Cc1ccccc1 (stereo not drawn)
32 | 4.52 | 0.33 | CC(C)(CNCC(N)Cc1cc(F)ccc1F)CNC(=O)C(O)C(N)Cc1ccccc1 (stereo not drawn) [drawing 70]

More lines, now with the values behind:

Row | SMILES | pIC50 [1] | IC50 [2] [µM]
33 | CCCCCCCCCCCCCCCC(=O)OC(C(=O)NCCCCNC(=O)CC(N)Cc1cc(F)ccc1F)C(N)Cc1ccccc1 (stereo not drawn) [drawing 53] | 5.10 | –
34 | CCCCCCCCCCCCCC(=O)NC(CC(=O)NCC(C)(C)CNC(=O)C(O)C(Cc1ccccc1)NC(=O)CCCCCCCCCCCCC)Cc1cc(F)ccc1F (stereo not drawn) [drawing 58] | 5.26 | 32
35 | NC(CC(=O)NCCCNC(=O)C(O)C(N)Cc1ccccc1)Cc1cc(F)ccc1F (stereo not drawn) [drawing 31] | 6.30 | 0.02
36 | CCCCCCCCCCCC(=O)OC(C(=O)NCC(C)(C)CNC(=O)CC(N)Cc1cc(F)ccc1F)C(N)Cc1ccccc1 (stereo not drawn) [drawing 47] | 6.22 | 18
37 | CN(CCCNC(=O)C(O)C(N)Cc1ccccc1)C(=O)CC(N)Cc1cc(F)ccc1F (stereo not drawn) [drawing 37] | 7.14 | 0.7
38 | CCCCCCCCCCCCCCCC(=O)OC(C(=O)NCC(C)(C)CNC(=O)CC(N)Cc1cc(F)ccc1F)C(N)Cc1ccccc1 (stereo not drawn) [drawing 43] | 7.22 | 0.03
39 | NC(CC(=O)NCCNC(=O)C(O)C(N)Cc1ccccc1)Cc1cc(F)ccc1F (stereo not drawn) [drawing 15] | 6.80 | 5.6
40 | NC(CC(=O)NCCNC(=O)C(O)C(N)Cc1ccccc1)Cc1ccccc1 (stereo not drawn) [drawing 14] | 6.10 | 2.9
41 | NC(CC(=O)NCCCCNC(=O)C(O)C(N)Cc1ccccc1)Cc1ccccc1 (stereo not drawn) [drawing 23] | 5.57 | 0.18
42 | CC(C)(CNC(=O)C(O)C(N)Cc1ccccc1)CNC(=O)C(CC(=O)O)C(N)Cc1cc(F)ccc1F (stereo not drawn) [drawing 56] | 5.43 | 1.4
43 | CCCCCC(=O)OC(C(=O)NCC(C)(C)CNC(=O)CC(N)Cc1cc(F)ccc1F)C(N)Cc1ccccc1 (stereo not drawn) [drawing 55] | 7.52 | 1.9
44 | CC(C)(CNC(=O)CC(N)Cc1ccccc1)CNC(=O)CC(O)C(N)Cc1ccccc1 (stereo not drawn) [drawing 24] | 5.66 | > 25
45 | CCCCCCCC(=O)OC(C(=O)N(C)CCCNC(=O)CC(N)Cc1cc(F)ccc1F)C(N)Cc1ccccc1 (stereo not drawn) [drawing 44] | 7.70 | > 50
46 | CC(C)(CNC(=O)CC(N)Cc1cc(F)ccc1F)CNC(=O)C1OC(=O)NC1Cc1ccc(-c2ccccc2)cc1 (stereo not drawn) [drawing 69] | 4.40 | 1.9
47 | NC(CC(=O)NCCNC(=O)CC(O)C(N)Cc1ccccc1)Cc1ccccc1 (stereo not drawn) [drawing 18] | 6.00 | > 50
48 | NC(CC(=O)NCC1(CNC(=O)C(O)C(N)Cc2ccccc2)CCCCC1)Cc1cc(F)ccc1F (stereo not drawn) [drawing 67] | 6.72 | 0.85
49 | NC(CC(=O)NCCCCNC(=O)C(O)C(N)Cc1ccccc1)C(=O)N1CCSC1 (stereo not drawn) [drawing 42] | 5.77 | > 50
50 | CC(C)(CNC(=O)CC(N)Cc1ccccc1)CNC(=O)C(O)C(N)Cc1ccccc1 (stereo not drawn) [drawing 21] | 5.70 | 0.18
51 | CC(C)(CNC(=O)CC(N)Cc1cc(F)ccc1F)CNC(=O)C(O)C(N)Cc1ccc(-c2cccnc2)cc1 (stereo not drawn) [drawing 76] | 7.02 | 0.0008
52 | NC(CC(=O)NC1CCCC(NC(=O)C(O)C(N)Cc2ccccc2)C1)Cc1cc(F)ccc1F (stereo not drawn) [drawing 63] | 6.92 | 0.03
53 | CN(CCCNC(=O)OCc1ccccc1)C(=O)C(O)C(N)Cc1ccccc1 (stereo not drawn) [drawing 72] | < 4.30 | 11.5
54 | NC(CC(=O)NCC1(CNC(=O)C(O)C(N)Cc2ccccc2)CCC1)Cc1cc(F)ccc1F (stereo not drawn) [drawing 57] | 7.00 | 0.07
55 | CC(C)(CNC(=O)CC(CN)Cc1ccccc1)CNC(=O)C(O)C(N)Cc1ccccc1 (stereo not drawn) [drawing 34] | < 4.30 | 0.15
56 | CC(C)(NC(=O)CC(N)Cc1ccccc1)C(C)(C)NC(=O)C(O)C(N)Cc1ccccc1 (stereo not drawn) [drawing 20] | 4.86 | 16.7
57 | NC(CNC(=O)c1cccc(NC(=O)C(O)C(N)Cc2ccccc2)c1)Cc1cc(F)ccc1F (stereo not drawn) [drawing 71] | 5.77 | 0.009
58 | CC(C)(CCNC(=O)CC(N)Cc1cc(F)ccc1F)CNC(=O)C(O)C(N)Cc1ccccc1 (stereo not drawn) [drawing 36] | 7.00 | > 50
59 | NC(CC(=O)NCCCCCNC(=O)C(O)C(N)Cc1ccccc1)Cc1ccccc1 (stereo not drawn) [drawing 27] | 5.57 | 0.12
60 | NC(CNC(=O)c1cccc(NC(=O)C(O)C(N)Cc2ccc(-c3ccsc3)cc2)c1)Cc1cc(F)ccc1F (stereo not drawn) [drawing 78] | 6.34 | 0.0005
